Assay results published in US12655465B2, “System for detecting and characterizing a microorganism” (Q-Linea AB, priority 2016, dated 2026).
In brackets after ≈: the same amount, converted by molar mass.

Columns and labels:
E. coli [1] = test: AST by flow cytometry type counting of individual bacteria (Aquila 400), MIC from differential growth; type: cell-based; conditions: Aquila 400 counting; for MIC: Escherichia coli
Experimental: The sample was enriched for bacteria and at the same time the culture media was changed, in this case to Mueller-Hinton media (MH-media). E. coli bacteria were recovered via filtration through a 0.2 μm filter and the recovered bacteria were resuspended in MH-media to a concentration of approximately 10^8 CFU/ml in Müller Hinton broth before being diluted to approximately 10^6 CFU/ml in Müller Hinton Broth. Antibiotic solutions were prepared in a series of 2:1 serial dilutions in Müller Hinton broth at 10× test concentrations. The range of antibiotic concentrations was chosen based on identity of the bacteria and the antibiotic. As the microorganism identified in Example 1 was E. coli in this case the following antibiotics were selected for use in the antimicrobial susceptibility test: Ciprofloxacin, Piperacillin+Tazobactam, Cefotaxime, Ceftazidim, Meropenem and Gentamicin. A series of eight different concentrations was selected based on known clinical MIC values. Eight sample tubes containing 100 μl antibiotic solution at eight different concentrations and 800 μl Müller Hinton broth were prepared. One additional tube contains 900 μl Müller Hinton broth and no antibiotic as positive control. 100 μl bacterial suspension (10^6 CFU/ml) was added to all nine tubes. A negative control sample comprising 1000 μl Müller Hinton broth (i.e., no bacteria) is prepared as negative control. All tubes were incubated at 35° C. and samples were taken after 0, 4, 6 and 24 hours. Bacterial samples were prepared for counting as in Example 2. Bacterial AST profiles were determined using a flow cytometry based counting of individual bacteria in an Aquila 400™ instrument (Q-linea AB, Sweden). Aquila 400 analysis was performed using the alexa 488™ laser. It was evident from the analysis performed at different time points that 4 hours was sufficient for detecting differential bacterial growth at the different concentration of antibiotics and thus to determine antibiotic susceptibility. Shorter times have been shown in the literature so this is not unexpected. MIC values for each antibiotic at different time points and cut-off values were calculated based on the differential bacterial growth. Values obtained by this method compared favorably with previously reported clinical MIC values and are shown below.

E. coli [2] = test: MIC with Macrobroth dilution; type: cell-based; conditions: reference method; for MIC: Escherichia coli
E. coli [3] = conditions: determined by another lab; cited from earlier work
[4] = 4 h, cut-off 5%, 4 hours incubation at 35° C. in Müller Hinton broth, read-out: MIC, 4 hours
[5] = 4 h, cut-off 10%, 4 hours, read-out: MIC, 4 hours
[6] = 4 h, cut-off 15%, 4 hours, read-out: MIC, 4 hours
[7] = 4 h, cut-off 20%, 4 hours, read-out: MIC, 4 hours
[8] = 6 h, cut-off 5%, 6 hours, read-out: MIC, 6 hours
[9] = 6 h, cut-off 10%, 6 hours, read-out: MIC, 6 hours
[10] = 6 h, cut-off 15%, 6 hours, read-out: MIC, 6 hours
[11] = 6 h, cut-off 20%, 6 hours, read-out: MIC, 6 hours
[12] = 24 h, cut-off 5%, 24 hours, read-out: MIC, 24 hours
[13] = 24 h, cut-off 10%, 24 hours, read-out: MIC, 24 hours
[14] = 24 h, cut-off 15%, 24 hours, read-out: MIC, 24 hours
[15] = 24 h, cut-off 20%, 24 hours, read-out: MIC, 24 hours
[16] = cut-off 5%, 4 hours incubation at 35° C. in Müller Hinton broth

Compound	MIC (E. coli [1]; [4]) [µg/mL]	MIC (E. coli [1]; [5]) [µg/mL]	MIC (E. coli [1]; [6]) [µg/mL]	MIC (E. coli [1]; [7]) [µg/mL]	MIC (E. coli [1]; [8]) [µg/mL]	MIC (E. coli [1]; [9]) [µg/mL]	MIC (E. coli [1]; [10]) [µg/mL]	MIC (E. coli [1]; [11]) [µg/mL]	MIC (E. coli [1]; [12]) [µg/mL]	MIC (E. coli [1]; [13]) [µg/mL]	MIC (E. coli [1]; [14]) [µg/mL]	MIC (E. coli [1]; [15]) [µg/mL]	MIC (E. coli [2]) [µg/mL]	MIC with E-test (E. coli [3]) [µg/mL]	MIC, 4 hours (E. coli [1]; [16]) [µg/mL]	MIC, 6 hours (E. coli [1]; cut-off 5%, 6 hours) [µg/mL]	MIC, 24 hours (E. coli [1]; cut-off 5%, 24 hours) [µg/mL]	MIC, 4 hours (E. coli [1]; cut-off 10%, 4 hours) [µg/mL]	MIC, 6 hours (E. coli [1]; cut-off 10%, 6 hours) [µg/mL]	MIC, 24 hours (E. coli [1]; cut-off 10%, 24 hours) [µg/mL]	further results
CC(C)(O/N=C(\C(=O)N[C@@H]1C(=O)N2C(C(=O)[O-])=C(C[n+]3ccccc3)CS[C@H]12)c1csc(N)n1)C(=O)O [Ceftazidime]	0.25 (≈ 0.457 µM)	0.25 (≈ 0.457 µM)	0.125 (≈ 0.229 µM)	0.125 (≈ 0.229 µM)	0.125 (≈ 0.229 µM)	0.125 (≈ 0.229 µM)	0.125 (≈ 0.229 µM)	0.125 (≈ 0.229 µM)	0.25 (≈ 0.457 µM)	0.25 (≈ 0.457 µM)	0.25 (≈ 0.457 µM)	0.25 (≈ 0.457 µM)	0.25 (≈ 0.457 µM)	≤ 0.5							
Piperacillin and Tazobactam														2	4	4	4	4	4	4	MIC, 4 hours (E. coli [1]; cut-off 15%, 4 hours): 4 µg/mL; MIC, 6 hours (E. coli [1]; cut-off 15%, 6 hours): 4 µg/mL; MIC, 24 hours (E. coli [1]; cut-off 15%, 24 hours): 4 µg/mL; MIC, 4 hours (E. coli [1]; cut-off 20%, 4 hours): 4 µg/mL; MIC, 6 hours (E. coli [1]; cut-off 20%, 6 hours): 2 µg/mL; MIC, 24 hours (E. coli [1]; cut-off 20%, 24 hours): 2 µg/mL; MIC with Macrobroth dilution (E. coli [2]): 4 to 8 µg/mL
Gentamicin														1	1	0.5	1	0.5	0.5	1	MIC, 4 hours (E. coli [1]; cut-off 15%, 4 hours): 0.5 µg/mL; MIC, 6 hours (E. coli [1]; cut-off 15%, 6 hours): 0.5 µg/mL; MIC, 24 hours (E. coli [1]; cut-off 15%, 24 hours): 1 µg/mL; MIC, 4 hours (E. coli [1]; cut-off 20%, 4 hours): 0.5 µg/mL; MIC, 6 hours (E. coli [1]; cut-off 20%, 6 hours): 0.5 µg/mL; MIC, 24 hours (E. coli [1]; cut-off 20%, 24 hours): 1 µg/mL; MIC with Macrobroth dilution (E. coli [2]): 0.5 to 1 µg/mL
O=C(O)c1cn(C2CC2)c2cc(N3CCNCC3)c(F)cc2c1=O [Ciprofloxacin]	0.016 (≈ 0.0483 µM)	0.008 (≈ 0.0241 µM)	0.008 (≈ 0.0241 µM)	0.008 (≈ 0.0241 µM)	0.008 (≈ 0.0241 µM)	0.008 (≈ 0.0241 µM)	0.008 (≈ 0.0241 µM)	0.004 (≈ 0.0121 µM)	0.008 (≈ 0.0241 µM)	0.008 (≈ 0.0241 µM)	0.008 (≈ 0.0241 µM)	0.008 (≈ 0.0241 µM)	0.016 (≈ 0.0483 µM)	≤ 0.03							
CO/N=C(\C(=O)N[C@@H]1C(=O)N2C(C(=O)O)=C(COC(C)=O)CS[C@H]12)c1csc(N)n1 [Cefotaxime]			0.06 (≈ 0.132 µM)	0.06 (≈ 0.132 µM)	0.06 (≈ 0.132 µM)	0.06 (≈ 0.132 µM)	0.03 (≈ 0.0659 µM)	0.03 (≈ 0.0659 µM)	0.125 (≈ 0.274 µM)	0.125 (≈ 0.274 µM)	0.06 (≈ 0.132 µM)	0.06 (≈ 0.132 µM)	0.125 (≈ 0.274 µM)	≤ 0.5							
C[C@@H](O)[C@H]1C(=O)N2C(C(=O)O)=C(S[C@@H]3CN[C@H](C(=O)N(C)C)C3)[C@H](C)[C@H]12 [Meropenem]				0.5 (≈ 1.3 µM)			0.5 (≈ 1.3 µM)	0.25 (≈ 0.652 µM)	0.5 (≈ 1.3 µM)	0.5 (≈ 1.3 µM)	0.25 (≈ 0.652 µM)	0.125 (≈ 0.326 µM)	0.25 to 0.5 (≈ 0.652 to 1.3 µM)	≤ 0.25							
